Like-named read-outs stand apart in the source and are kept apart here.
How the values were obtained:
[1] = fraction unbound in cell culture medium; type: in vitro ADME
[2] = effect of food intake on pharmacokinetics; type: in vivo; conditions: human blood plasma
Text: Further, in accordance with the invention the person skilled in the art understands that food intake prior to administration of the crystalline mono mesylate monohydrate salt of N-[5-(aminosulfonyl)-4-methyl-1,3-thiazol-2-yl]-N-methyl-2-[4-(2-pyridinyl)phenyl]-acetamide of a subject may influence positively the in vivo PK/PD profile of the resultant free base of N-[5-(aminosulfonyl)-4-methyl-1,3-thiazol-2-yl]-N-methyl-2-[4-(2-pyridinyl)phenyl]-acetamide. Thus, in accordance with the invention a decreased absorption rate and a delayed tmax of the resultant free base of N-[5-(aminosulfonyl)-4-methyl-1,3-thiazol-2-yl]-N-methyl-2-[4-(2-pyridinyl)phenyl]-acetamide may be expected in […] subjects after administration of crystalline mono mesylate monohydrate salt of N-[5-(aminosulfonyl)-4-methyl-1,3-thiazol-2-yl]-N-methyl-2-[4-(2-pyridinyl)phenyl]-acetamide.

[3] = Multiple-dose escalation, steady state pharmacokinetics in healthy volunteers; type: in vivo, human; conditions: for Ctrough: free base in plasma; for AUC / Cmax: human, plasma, oral
Text: For three doses of the mono mesylate monohydrate salt of N-[5-(aminosulfonyl)-4-methyl-1,3-thiazol-2-yl]-N-methyl-2-[4-(2-pyridinyl)phenyl]acetamide in formulations in accordance with table a, wherein the particle size distribution is preferably defined by d(0.1) from 2 to 100 μm, d(0.5) from 30 to 210 μm and d(0.9) from 70 to 400 μm with a specific surface area of the particles less than 1.0 m^2/g, and more preferably defined by d(0.1) from 10 to 75 μm, d(0.5) from 100 to 175 μm, d(0.9) from 200 to 350 μm with a specific surface area of the particles less than 0.3 m^2/g, investigated (5, 25, and 100 mg as free base equivalent; once per day oral administration, […]), the individual concentration-time curves of the free base N-[5-(aminosulfonyl)-4-methyl-1,3-thiazol-2-yl]Nmethyl-2-[4-(2-pyridinyl)phenyl]acetamide at day 1 (after the first administration) were very similar in their general shape and slope to those profiles obtained in the single dose escalation trial (see Example a).
At steady state, there was a low inter-individual variability of minimal or “trough” concentrations with CVs (coefficient of variations) between 16.7 and 21.7% (day 21). For all doses, the individual and mean concentration-time curves of the free base of N-[5-(aminosulfonyl)-4-methyl-1,3-thiazol-2-yl]-N-methyl-2-[4-(2-pyridinyl)phenyl]acet-amide at day 21 were very similar in their shape and slope to those profiles obtained at day 1.
Table c: Steady state pharmacokinetic parameters of the free base N-[5-(aminosulfonyl)-4-methyl-1,3-thiazol-2-yl]-N-methyl-2-[4-(2-pyridinyl)phenyl]acetamide at day 21 after daily administrations of 5, 25, or 100 mg as free base equivalent of the mono mesylate monohydrate salt of N-[5-(aminosulfonyl)-4-methyl-1,3-thiazol-2-yl]-N-methyl-2-[4-(2-pyridinyl)phenyl]acetamide in formulations in accordance with table a, wherein the particle size distribution is preferably defined by d(0.1) from 2 to 100 μm, d(0.5) from 30 to 210 μm and d(0.9) from 70 to 400 μm with a specific surface area of the particles less than 1.0 m^2/g, and more preferably defined by d(0.1) from 10 to 75 μm, d(0.5) from 100 to 175 μm, d(0.9) from 200 to 350 μm with a specific surface area of the particles less than 0.3 m^2/g, to healthy volunteers (n=12 per dose).

[4] = 5 mg free base equivalent once daily, day 21 steady state, healthy volunteers n=12
[5] = 25 mg free base equivalent once daily, day 21 steady state, healthy volunteers n=12
[6] = 100 mg free base equivalent once daily, day 21 steady state, healthy volunteers n=12

CS(=O)(=O)O.Cc1nc(N(C)C(=O)Cc2ccc(-c3ccccn3)cc2)sc1S(N)(=O)=O [mono mesylate monohydrate salt, N-[5-(aminosulfonyl)-4-methyl-1,3-thiazol-2-yl]-N-methyl-2-[4-(2-pyridinyl)-phenyl]acetamide mono methanesulfonic acid monohydrate]
fraction unbound [1]: 0.71 | t1/2z with food intake prior to administration [2]: remains constant | increase in AUC with food intake prior to administration ([2]; HPLC, worded 'may lead to'): at least 10% | increase in mean Cmax with food intake prior to administration ([2]; HPLC, worded 'may lead to'): at least 25% | Cav [3, 4]: 213 ng/mL | t1/2z [3, 4]: 82.6 h | Ctrough [3, 4]: 187 ng/mL | t1/2z on average ([3]; 25 mg dosage as free base equivalent, steady state after once daily single doses for 21 days): 69 ± 6 h | Cav [3, 5]: 977 ng/mL | Cmax,ss [3, 5]: 1358 ng/mL | t1/2z [3, 5]: 68.6 h | AUCτ ([3]; 25 mg free base equivalent once daily, day 21 steady state, healthy volunteers n=12, dosing interval 24 hours): 23430 ng·h/mL | Ctrough [3, 5]: 832 ng/mL | Cav [3, 6]: 4540 ng/mL | Cmax,ss [3, 6]: 6358 ng/mL | t1/2z [3, 6]: 59.8 h | AUCτ ([3]; 100 mg free base equivalent once daily, day 21 steady state, healthy volunteers n=12, dosing interval 24 hours): 108800 ng·h/mL | Ctrough [3, 6]: 3743 ng/mL | t1/2z on average ([3]; 200 mg dosage as free base equivalent, steady state after once daily single doses for 21 days): 57.19 ± 5.451 h | dose dependence of AUC0-24h and Cmax at day 1 ([3]; 5, 25, 100 mg free base equivalent, after the first administration): dose-proportional increases | dose dependence of exposure at steady state (Ctrough, AUCτ, Cmax,ss, Cav) ([3]; 5, 25, 100 mg once daily): dose-proportional increase | accumulation ratio R for AUC and Cmax ([3]; all doses applied (5, 25, 100 mg once daily)): ~5 | apparent total clearance (CL/F) ([3]; all doses investigated (5, 25, 100 mg once daily), steady state): 0.99 to 1.08 L/h | AUC ([3]; 200 mg, 100 mg dosage as free base equivalent, steady state after once daily single doses for 21 days, read-out: AUCτ,ss): 168000 ± 38000 ng·h/mL | AUC ([3]; 5 mg free base equivalent once daily, day 21 steady state, healthy volunteers n=12, dosing interval 24 hours, read-out: AUCτ): 5090 ng·h/mL | Cmax ([3]; 5 mg free base equivalent once daily, day 21 steady state, healthy volunteers n=12, read-out: Cmax,ss): 301 ng/mL | Cmax ([3]; 100 mg dosage as free base equivalent, steady state after once daily single doses for 21 days, read-out: mean maximum blood plasma concentration at steady state (mean Cmax,ss) of the free base): 6360 ± 1700 ng/mL | Cmax ([3]; 200 mg dosage as free base equivalent, steady state after once daily single doses for 21 days, read-out: mean maximum blood plasma concentration at steady state (mean Cmax,ss) of the free base): 9990 ± 2610 ng/mL

Source: US20150374676A1, “HELICASE-PRIMASE INHIBITORS FOR USE IN A METHOD OF TREATING ALZHEIMER'S DISEASE” (AICURIS GMBH & CO. KG, priority 2013, published 2015)
